Reference: ChEMBL document CHEMBL1201862, “PubChem BioAssay data set” (2004)
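Five concentrations, 48 hours, 96-well plates. GI50 is the concentration that inhibits growth by half.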 Activity calls are given as the source filed them. Rule as the data show it: active = GI50 up to about 1.1 µM and inactive = higher.

Experiments:
Experiment in all cases: growth of human tumour cells (NCI), 48 h
UACC-62 = system: UACC-62
IGROV-1 = system: IGROV-1
M14 = system: M14
UO-31 = system: UO-31
HT-29 = system: HT-29
SF-268 = system: SF-268
SR = system: SR
SK-MEL-2 = system: SK-MEL-2
KM12 = system: KM12
A549 = system: A549
SNB-19 = system: SNB-19
TK-10 = system: TK-10
HCC 2998 = system: HCC 2998
OVCAR-3 = system: OVCAR-3
NCI-H460 = system: NCI-H460
MOLT-4 = system: MOLT-4
NCI-H226 = system: NCI-H226
OVCAR-8 = system: OVCAR-8
MDA-MB-435 = system: MDA-MB-435
T47D = system: T47D

Compound	GI50 (UACC-62)	GI50 (IGROV-1)	GI50 (M14)	GI50 (UO-31)	GI50 (HT-29)	GI50 (SF-268)	GI50 (SR)	GI50 (SK-MEL-2)	GI50 (KM12)	GI50 (A549)	GI50 (SNB-19)	GI50 (TK-10)	GI50 (HCC 2998)	GI50 (OVCAR-3)	GI50 (NCI-H460)	GI50 (MOLT-4)	GI50 (NCI-H226)	GI50 (OVCAR-8)	GI50 (MDA-MB-435)	GI50 (T47D)
Oc1nc2cc3nc(O)c(O)nc3cc2nc1O	> 100 µM (inactive)	> 100 µM (inactive)	> 100 µM (inactive)	> 100 µM (inactive)	> 100 µM (inactive)	> 100 µM (inactive)	> 10 µM (inactive)	> 100 µM (inactive)	> 100 µM (inactive)	> 100 µM (inactive)	> 100 µM (inactive)	> 100 µM (inactive)	> 100 µM (inactive)	> 100 µM (inactive)	> 100 µM (inactive)	> 100 µM (inactive)	> 100 µM (inactive)	> 100 µM (inactive)	> 100 µM (inactive)	
N#CC1(C#N)NC(c2ccsc2)C(C#N)(C#N)NC1c1ccsc1 (centres undefined)	> 100 µM (inactive)	> 100 µM (inactive)	> 100 µM (inactive)	> 100 µM (inactive)	> 100 µM (inactive)	> 100 µM (inactive)	> 100 µM (inactive)	> 100 µM (inactive)	> 100 µM (inactive)	> 100 µM (inactive)	> 100 µM (inactive)	> 100 µM (inactive)	> 100 µM (inactive)	> 100 µM (inactive)	> 100 µM (inactive)	> 100 µM (inactive)	> 100 µM (inactive)	> 100 µM (inactive)	> 100 µM (inactive)	
COc1c(C)c(C/C=C(\C)CCCCO)c(OC)c(OC)c1OC	> 100 µM (inactive)	45.2 µM (inactive)	> 100 µM (inactive)	> 100 µM (inactive)	> 100 µM (inactive)	> 100 µM (inactive)	95.7 µM (inactive)	> 100 µM (inactive)	19.1 µM (inactive)	23.7 µM (inactive)	> 100 µM (inactive)	> 100 µM (inactive)		> 100 µM (inactive)	18 µM (inactive)	73.6 µM (inactive)		> 100 µM (inactive)	> 100 µM (inactive)	
Cc1n[nH]c(=O)n1/N=C/c1ccco1	> 100 µM (inactive)		> 100 µM (inactive)	> 100 µM (inactive)	> 100 µM (inactive)	> 100 µM (inactive)		> 100 µM (inactive)	> 100 µM (inactive)	> 100 µM (inactive)	> 100 µM (inactive)		> 100 µM (inactive)	> 100 µM (inactive)	> 100 µM (inactive)	> 100 µM (inactive)	> 100 µM (inactive)	> 100 µM (inactive)	> 100 µM (inactive)	> 100 µM (inactive)
Cc1c(Cl)ccc2c(=O)c3cccc(CC(=O)O)c3oc12		> 100 µM (inactive)	> 100 µM (inactive)	> 100 µM (inactive)	> 100 µM (inactive)	> 100 µM (inactive)	> 100 µM (inactive)	> 100 µM (inactive)	> 100 µM (inactive)	> 100 µM (inactive)	> 100 µM (inactive)	> 100 µM (inactive)	> 100 µM (inactive)	> 100 µM (inactive)	> 100 µM (inactive)	> 100 µM (inactive)	> 100 µM (inactive)	> 100 µM (inactive)	> 100 µM (inactive)	
CN1CC[C@@H](c2c(O)cc(O)c3c(=O)cc(-c4ccccc4Cl)oc23)[C@@H](O)C1	0.0273 µM (active)	0.0304 µM (active)	0.034 µM (active)	0.0266 µM (active)	0.0942 µM (active)	0.0348 µM (active)	0.0263 µM (active)	0.0366 µM (active)	0.0303 µM (active)	0.0543 µM (active)	0.0407 µM (active)	0.0538 µM (active)	0.0693 µM (active)		0.0352 µM (active)	0.0367 µM (active)	0.0357 µM (active)	0.0401 µM (active)	0.0332 µM (active)	
CC1(C)OCC(COC(=O)C=[N+]=[N-])O1 (centres undefined)	> 100 µM (inactive)	> 100 µM (inactive)		> 100 µM (inactive)	> 100 µM (inactive)	> 100 µM (inactive)	> 100 µM (inactive)	> 100 µM (inactive)	> 100 µM (inactive)		> 100 µM (inactive)	> 100 µM (inactive)	> 100 µM (inactive)	> 100 µM (inactive)	13.2 µM (inactive)	> 100 µM (inactive)	> 100 µM (inactive)		> 100 µM (inactive)	
CCOC(=O)COc1ccc(OCC(=O)OCC)c2c1C(=O)CCCC2=O	> 100 µM (inactive)	3.13 µM (inactive)	> 100 µM (inactive)	> 100 µM (inactive)	> 100 µM (inactive)	> 100 µM (inactive)	> 100 µM (inactive)	> 100 µM (inactive)	> 100 µM (inactive)	> 100 µM (inactive)	> 100 µM (inactive)	> 100 µM (inactive)	> 100 µM (inactive)	> 100 µM (inactive)	> 100 µM (inactive)	> 100 µM (inactive)	> 100 µM (inactive)	> 100 µM (inactive)		
[N-]=[N+]=C(C(=O)C(=[N+]=[N-])C(=O)c1ccccc1)C(=O)c1ccccc1	> 100 µM (inactive)	> 100 µM (inactive)	> 100 µM (inactive)	65.5 µM (inactive)	> 100 µM (inactive)	> 100 µM (inactive)		> 100 µM (inactive)	44.2 µM (inactive)	> 100 µM (inactive)	> 100 µM (inactive)	> 100 µM (inactive)	> 100 µM (inactive)	> 100 µM (inactive)	> 100 µM (inactive)			> 100 µM (inactive)	> 100 µM (inactive)	
CC(=O)NNc1nc(C)c(C(=O)/C=C/c2ccc(/C=C/C(=O)c3sc(NNC(C)=O)nc3C)cc2)s1	> 100 µM (inactive)	> 100 µM (inactive)	43.2 µM (inactive)	> 100 µM (inactive)	> 100 µM (inactive)	> 100 µM (inactive)	> 100 µM (inactive)	> 100 µM (inactive)	> 100 µM (inactive)	> 100 µM (inactive)	> 100 µM (inactive)	> 100 µM (inactive)	> 100 µM (inactive)	> 100 µM (inactive)	> 100 µM (inactive)	> 100 µM (inactive)	> 100 µM (inactive)	> 100 µM (inactive)		
CON(C)C(=O)C(C)NC(=O)OCc1ccccc1 (centres undefined)	> 100 µM (inactive)	> 100 µM (inactive)	> 100 µM (inactive)	> 100 µM (inactive)	> 100 µM (inactive)	> 100 µM (inactive)	> 100 µM (inactive)		> 100 µM (inactive)	> 100 µM (inactive)	> 100 µM (inactive)	> 100 µM (inactive)	> 100 µM (inactive)	> 100 µM (inactive)	> 100 µM (inactive)	> 100 µM (inactive)	> 100 µM (inactive)	> 100 µM (inactive)	> 100 µM (inactive)	
